PubChem BioAssay AID1918942 (Molecular Pharmacology Branch, DTP, NCI, 2023)
pIC50: −log10 of the molar value.

Test system: 743489-274-T-PDC complex spheroid viability
Assay: Anticancer human tumor 743489-274-T-PDC patient-derived renal cell carcinoma cell line growth inhibition
Details: for pIC50: curve of first compound; for viability, T/C: stronger effect = lower value
How it was run: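 Drug combinations with the LSD1 inhibitor iadademstat tested on tumor cells co-cultured as spheroids with endothelial cells and mesenchymal stem cells. Concentrations descended in half-log increments from clinical Cmax or 10 microM.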

[1] = second compound 0.1 µM, first compound 0.000316 µM
[2] = second compound 0.1 µM, first compound 0.001 µM
[3] = second compound 0.1 µM, first compound 0.00316 µM
[4] = second compound 0.1 µM, first compound 0.01 µM
[5] = second compound 0.1 µM, first compound 0.0316 µM
[6] = second compound 0.1 µM, first compound 0.1 µM
[7] = second compound 0.316 µM, first compound 0.000316 µM
[8] = second compound 0.316 µM, first compound 0.001 µM
[9] = second compound 0.316 µM, first compound 0.00316 µM
[10] = second compound 0.316 µM, first compound 0.01 µM
[11] = second compound 0.316 µM, first compound 0.0316 µM
[12] = second compound 0.316 µM, first compound 0.1 µM
[13] = second compound 1 µM, first compound 0.000316 µM
[14] = second compound 1 µM, first compound 0.001 µM
[15] = second compound 1 µM, first compound 0.00316 µM
[16] = second compound 1 µM, first compound 0.01 µM
[17] = second compound 1 µM, first compound 0.0316 µM
[18] = second compound 1 µM, first compound 0.1 µM
[19] = second compound 3.16 µM, first compound 0.000316 µM
[20] = second compound 3.16 µM, first compound 0.001 µM
[21] = second compound 3.16 µM, first compound 0.00316 µM
[22] = second compound 3.16 µM, first compound 0.01 µM
[23] = second compound 3.16 µM, first compound 0.0316 µM
[24] = second compound 3.16 µM, first compound 0.1 µM
[25] = second compound 10 µM, first compound 0.000316 µM
[26] = second compound 10 µM, first compound 0.001 µM
[27] = second compound 10 µM, first compound 0.00316 µM
[28] = second compound 10 µM, first compound 0.01 µM
[29] = second compound 10 µM, first compound 0.0316 µM
[30] = second compound 10 µM, first compound 0.1 µM
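Further: spheroids exposed to compounds for 7 days before readout.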
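Wherever viability, T/C is given: 100% = DMSO vehicle control wells.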

SMILES | pIC50 (second compound 0.1 µM) | pIC50 (second compound 0.316 µM) | pIC50 (second compound 1 µM) | pIC50 (second compound 3.16 µM) | pIC50 (second compound 10 µM) | viability, T/C [3] | viability, T/C [4] | viability, T/C [5] | viability, T/C [6] | viability, T/C [9] | viability, T/C [10] | viability, T/C [11] | viability, T/C [12] | viability, T/C [15] | viability, T/C [16] | viability, T/C [17] | viability, T/C [18] | viability, T/C [21] | viability, T/C [22] | viability, T/C [23] | further results
CC(C)CC(NC(=O)C(Cc1ccccc1)NC(=O)c1cnccn1)B(O)O (stereo not given) + NC1CCC(NC2CC2c2ccccc2)CC1 | 8.12 | 8.10 | 8.13 | 8.07 | 8.09 | 121% | 33.7% | 29.6% | 30.3% | 115% | 33.4% | 19.1% | 26.7% | 113% | 36.8% | 23.7% | 28.1% | 113% | 40.3% | 22.3% | viability, T/C [1]: 115%; viability, T/C [2]: 100%; viability, T/C [7]: 119%; viability, T/C [8]: 109%; viability, T/C [13]: 100%; viability, T/C [14]: 108%; viability, T/C [19]: 122%; viability, T/C [20]: 103%; viability, T/C [24]: 38.3%; viability, T/C [25]: 117%; viability, T/C [26]: 119%; viability, T/C [27]: 123%; viability, T/C [28]: 35.8%; viability, T/C [29]: 22.1%; viability, T/C [30]: 35.5%
CC(C)CC(NC(=O)CNC(=O)c1cc(Cl)ccc1Cl)B1OC(=O)CC(CC(=O)O)(C(=O)O)O1 (stereo not given) + NC1CCC(NC2CC2c2ccccc2)CC1 | < 7.00 | 7.03 | < 7.00 | < 7.00 | 7.06 | 109% | 80.4% | 72.6% | 60.7% | 108% | 80.5% | 79.8% | 46.6% | 108% | 98.1% | 78.4% | 51.9% | 105% | 89.1% | 92.6% | viability, T/C [1]: 95.9%; viability, T/C [2]: 105%; viability, T/C [7]: 119%; viability, T/C [8]: 123%; viability, T/C [13]: 120%; viability, T/C [14]: 120%; viability, T/C [19]: 104%; viability, T/C [20]: 113%; viability, T/C [24]: 48.9%; viability, T/C [25]: 134%; viability, T/C [26]: 107%; viability, T/C [27]: 100%; viability, T/C [28]: 100%; viability, T/C [29]: 76.6%; viability, T/C [30]: 43.9%
COc1cc(Nc2ncc3c(n2)-c2ccc(Cl)cc2C(c2c(F)cccc2OC)=NC3)ccc1C(=O)O + NC1CCC(NC2CC2c2ccccc2)CC1 | < 6.00 | < 6.00 | < 6.00 | < 6.00 | < 6.00 | 104% | 104% | 92.6% | 86.2% | 100% | 96% | 103% | 82.5% | 104% | 105% | 88.8% | 86.6% | 92.6% | 100% | 100% | viability, T/C (second compound 0.1 µM, first compound 0.316 µM): 90.3%; viability, T/C (second compound 0.1 µM, first compound 1 µM): 82.2%; viability, T/C (second compound 0.316 µM, first compound 0.316 µM): 89.7%; viability, T/C (second compound 0.316 µM, first compound 1 µM): 85%; viability, T/C (second compound 1 µM, first compound 0.316 µM): 92.5%; viability, T/C (second compound 1 µM, first compound 1 µM): 97.2%; viability, T/C [24]: 79.4%; viability, T/C (second compound 3.16 µM, first compound 0.316 µM): 104%; viability, T/C (second compound 3.16 µM, first compound 1 µM): 97.2%; viability, T/C [27]: 102%; viability, T/C [28]: 111%; viability, T/C [29]: 105%; viability, T/C [30]: 99.2%; viability, T/C (second compound 10 µM, first compound 0.316 µM): 102%; viability, T/C (second compound 10 µM, first compound 1 µM): 93.8%
